Measurements as given in US20100130598A1, “METHODS FOR INDUCING PROGRAMMED CELL DEATH” (Novogen Research Pty Ltd., priority 2008, published 2010).

Key:
MIAPaCa-2 = MIAPaCa-2 pancreatic cancer xenograft; assay type: in vivo, Balb/c nude mice; settings: MIAPaCa-2 model; Compound 10 100 mg/kg oral qd×12, gemcitabine 20 mg/kg q3d×4, alone or combined
Experimental: For xenograft studies, five week old male Balb/c nude mice were maintained on an isoflavone-free diet to remove background isoflavone levels contributed by standard feed. On the day of inoculation a suspension of MIAPaCa2 or HPAC cells was prepared in DMEM (-FBS), chilled on ice and then an equal volume of matrigel (BD) was added. Mice were inoculated subcutaneously with 3×10^6 MIAPaCa2 or HPAC cells bilaterally (midway between the axillary and inguinal region) along the dorsal surface, ensuring that cells to be injected were growing at mid-end log phase. Tumor growth was monitored over 10-15 days. Compound 10 was given orally by gavage in 1% carboxy methyl cellulose (CMC) as a vehicle. Gemcitabine was injected intraperiponeally in PBS. In combination groups animals were first dosed with Compound 10 and then dosed with gemcitabine using the respective administration schedule, dosage and route of delivery stated.

caspases-3/7, -8, and -9 = assay: Caspase-3/7, -8, and -9 activity assay (Caspase-Glo) on cell lysates; assay type: cell-based, human; settings: EOC cells, 24 h; increasing concentrations of Compound 1 or 2 μM Paclitaxel
Description: Protein preparation and cellular fractionation. After drug treatment, protein was extracted and measured as previously described (Alvero et al, 2006). For separation of the cytoplasmic and mitochondrial fractions, cell pellets were processed using the ApoAlert™ Cell Fractionation Kit (BD Biosciences, San Jose, Calif.) according to the manufacturer's instructions. For separation of the cytoplasmic and nuclear fractions, pellets were processed using NE-PER Nuclear and Cytoplasmic Extraction (Pierce Biotechnology, Inc., Rockford, Ill.). Caspase-3/7, -8, and -9 activity assay. Ten μg of protein in a 50 μl total volume was mixed with 50 μl of equilibrated Caspase-Glo^10 3/7, 8, or 9 reagents (Promega). After incubating at room temperature for 1 h, luminescence was measured using TD 20/20 Luminometer (Turner Designs, Sunnyvale, Calif.). Blank values were subtracted and fold-increase in activity was determined in relation to the control non-treatment.

EOC tumors = assay: Mouse EOC xenograft study; assay type: in vivo; settings: 3 weeks; for T/C values (maximal tumor inhibition, treated/control): intra-peritoneal, Compound 1 100 mg/kg every day, Carboplatin 40 mg/kg q×7d, Paclitaxel 10 mg/kg q×3d
Experimental: Mouse xenograft studies. The in vivo study as approved by the Yale University Institutional Animal Care & Use Committee. Cells (1×10^6 cells) were resuspended in 200 μ1 total volume of 50% RPMI and 50% BD Matrigel Matrix (BD Biosciences, Bedford, Mass.) and injected subcutaneously into the right flank of NCR nude mice. Intra-peritoneal therapy commenced eight days post-inoculation as follows: Paclitaxel 10 mg/kg q×3d, Carboplatin 40 mg/kg q×7d, and Compound 1 in 20% HPBCD, 100 mg/kg every day. Control groups received 20% HPBCD in PBS. Mice were treated and observed for 3 weeks. Tumor size was determined by caliper measurements and anti-tumor activity was analyzed with respect to maximal tumor inhibition (treated/control, T/C) as described previously (Kamsteeg et al, 2003).

MIAPaCa-2 cells = assay: Apoptosis/necrosis by FACS (Annexin-V-FITC/PI), MIAPaCa-2; assay type: cell-based, human; settings: MIAPaCa-2, 10 μM zVAD-fmk 1 h pre-treatment; 10 μM Compound 10 or 50 ng/mL TRAIL
Experimental: Cells. Human pancreatic cell lines HPAC, MIAPaCa-2 and PANC-1 were obtained from the ATCC. (Manassas, Va.). The cells were maintained in DMEM media with Gln and high glucose (Mediatech, Manassas, Va.) with 10% fetal bovine serum (FBS, HyClone, Logan, Utah) and pencillin/streptomycin.
FACS Analysis. Apoptosis was measured by FACS analysis using Annexin-V-FITC and propidium iodide (PI) (Biovision, Mountain View, Calif.) as probes (Ahn et al., 2003). Mitochondrial membrane potential was measured by FACS analysis using JC-1 (Biovision) as a probe (Ahn et al., 2003). Cell cycle was analyzed on ethanol-fixed, RNaseA-treated cells staining with PI. In each spectrum, 10,000 gated events were recorded and analyzed with a FACSCalibur (BD Biosciences. San Jose, Calif.). All experiments were done in triplicate, error bars represent one standard deviation. Caspase inhibitor I (zVAD-fmk) was obtained from Calbiochem.

Molecule: Nc1ccn([C@@H]2O[C@H](CO)[C@@H](O)C2(F)F)c(=O)n1 [gemcitabine, reference compound]
- % T/C (mean terminal tumor burden) (MIAPaCa-2): 79%

Molecule: CC(=O)O[C@H]1C(=O)[C@@]2(C)[C@H]([C@H](OC(=O)c3ccccc3)[C@]3(O)C[C@H](OC(=O)[C@H](O)[C@@H](NC(=O)c4ccccc4)c4ccccc4)C(C)=C1C3(C)C)[C@]1(OC(C)=O)CO[C@@H]1C[C@@H]2O [Paclitaxel, reference compound]
- caspase-3/7, -8, and -9 activities (caspases-3/7, -8, and -9): increase
- T/C values (maximal tumor inhibition, treated/control) (EOC tumors): 58%

Molecule: N.N.O=C([O-])C1(C(=O)[O-])CCC1.[Pt+2] [carboplatin, reference compound]
- T/C values (maximal tumor inhibition, treated/control) (EOC tumors): 58%
- toxic side effects (EOC tumors; xenograft mice): severe weight loss and cachexia

B1: TRAIL: TRAIL (Alexis), 50 ng/mL, positive caspase-dependent control (protein, UniProt P50591 1-281, looked up)
Tumor necrosis factor ligand …: MAMMEVQGGPSLGQTCVLIVIFTVLLQSLCVAVTYVYFTNELKQMQDKYSKSGIACFLKEDDSYWDPNDEESMNSPCWQVKWQLRQLVRKMILRTSEETISTVQEKQQNISPLVRERGPQRVAAHITGTRGRSNTLSSPNSKNEKALGRKINSWESSRSGHSFLSNLHLRNGELVIHEKGFYYIYSQTYFRFQEEIKENTKNDKQMVQYIYKYTSYPDPILLMKSARNSCWSKDAEYGLYSIYQGGIFELKENDRIFVSVTNEHLIDMDHEASFFGAFLVG
- effect of zVAD-fmk pre-treatment on induced apoptosis (MIAPaCa-2 cells): inhibition
